Experimental data reported in ChEMBL document CHEMBL5518172, “Discovery of hydroxamate as a promising scaffold dually inhibiting metallo- and serine-β-lactamases” (Eur J Med Chem, 2024).

How the values were obtained:
[1] = Inhibition of recombinant serine beta lactamase OXA-48 (unknown origin) expressed in Escherichia coli BL21 (DE3) cells using meropenem as substrate by spectrometric analysis; design: species or system Bacteria
Bacteria [2] = assay: Inhibition of recombinant metallo-beta-lactamase L-1 (unknown origin) expressed in Escherichia coli BL21 (DE3) cells using cefazolin as substrate at 20 uM by spectrometric analysis relative to control
Escherichia coli [3] = assay: Synergistic antibacterial activity against Escherichia coli BL21 (DE3) harboring metallo-beta-lactamase IMP-1 assessed as meropenem MIC at 64 microg/ml measured after 16 hrs by CLSI protocol based broth microdilution method (reference value: 64 microg/ml); format: functional; conditions: dose 64 µg/ml
Escherichia coli [4] = assay: Synergistic antibacterial activity against Escherichia coli BL21 (DE3) harboring serine beta lactamase KPC-2 assessed as meropenem MIC at 64 microg/ml measured after 16 hrs by CLSI protocol based broth microdilution method (reference value: 16 microg/ml); format: functional; conditions: dose 64 µg/ml
Bacteria [5] = assay: Inhibition of recombinant serine beta lactamase OXA-48 (unknown origin) expressed in Escherichia coli BL21 (DE3) cells using meropenem as substrate at 20 uM by spectrometric analysis relative to control
Bacteria [6] = assay: Inhibition of recombinant metallo-beta-lactamase ImiS (unknown origin) expressed in Escherichia coli BL21 (DE3) cells using meropenem as substrate at 20 uM by spectrometric analysis relative to control
Escherichia coli [7] = assay: Synergistic antibacterial activity against Escherichia coli BL21 (DE3) harboring metallo-beta lactamase IMP-1 assessed as fold decrease in meropenem MIC at 64 microg/ml measured after 16 hrs by CLSI protocol based broth microdilution method; format: functional; conditions: dose 64 µg/ml
[8] = biological target: Metallo-beta-lactamase type 2 (Bacteria, UniProt C7C422); assay: Inhibition of recombinant NDM-1 (unknown origin) expressed in Escherichia coli BL21 (DE3) cells using meropenem as substrate by spectrometric analysis
[9] = Inhibition of recombinant metallo-beta-lactamase IMP-1 (unknown origin) expressed in Escherichia coli BL21 (DE3) cells using meropenem as substrate by spectrometric analysis; design: species or system Bacteria
Bacteria [10] = assay: Inhibition of recombinant metallo-beta-lactamase IMP-1 (unknown origin) expressed in Escherichia coli BL21 (DE3) cells using cefazolin as substrate at 20 uM by spectrometric analysis relative to control
Escherichia coli [11] = assay: Synergistic antibacterial activity against Escherichia coli BL21 (DE3) harboring NDM-1 assessed as meropenem MIC at 64 microg/ml measured after 16 hrs by CLSI protocol based broth microdilution method (reference value: 256 microg/ml); format: functional; conditions: dose 64 µg/ml
Escherichia coli [12] = assay: Synergistic antibacterial activity against Escherichia coli BL21 (DE3) harboring serine beta lactamase OXA-48 assessed as fold decrease in meropenem MIC at 64 microg/ml measured after 16 hrs by CLSI protocol based broth microdilution method; format: functional; conditions: dose 64 µg/ml
[13] = biological target: Metallo-beta-lactamase type 2 (Bacteria) (UniProt C7C422); assay: Inhibition of recombinant NDM-1 (unknown origin) expressed in Escherichia coli BL21 (DE3) cells using meropenem as substrate at 20 uM by spectrometric analysis relative to control
Bacteria [14] = assay: Inhibition of recombinant serine beta lactamase KPC-2 (unknown origin) expressed in Escherichia coli BL21 (DE3) cells using meropenem as substrate at 20 uM by spectrometric analysis relative to control
[15] = Inhibition of recombinant serine beta lactamase KPC-2 (unknown origin) expressed in Escherichia coli BL21 (DE3) cells using meropenem as substrate by spectrometric analysis; design: species or system Bacteria
Escherichia coli [16] = assay: Synergistic antibacterial activity against Escherichia coli BL21 (DE3) harboring NDM-1 assessed as fold decrease in meropenem MIC at 64 microg/ml measured after 16 hrs by CLSI protocol based broth microdilution method; format: functional; conditions: dose 64 µg/ml
Escherichia coli [17] = assay: Synergistic antibacterial activity against Escherichia coli BL21 (DE3) harboring serine beta lactamase KPC-2 assessed as fold decrease in meropenem MIC at 64 microg/ml measured after 16 hrs by CLSI protocol based broth microdilution method; format: functional; conditions: dose 64 µg/ml
Escherichia coli [18] = assay: Synergistic antibacterial activity against Escherichia coli BL21 (DE3) harboring serine beta lactamase OXA-48 assessed as meropenem MIC at 64 microg/ml measured after 16 hrs by CLSI protocol based broth microdilution method (reference value: 1 microg/ml); format: functional; conditions: dose 64 µg/ml

Metallo-beta-lactamase type 2 (Bacteria), sequence (C7C422 whole entry): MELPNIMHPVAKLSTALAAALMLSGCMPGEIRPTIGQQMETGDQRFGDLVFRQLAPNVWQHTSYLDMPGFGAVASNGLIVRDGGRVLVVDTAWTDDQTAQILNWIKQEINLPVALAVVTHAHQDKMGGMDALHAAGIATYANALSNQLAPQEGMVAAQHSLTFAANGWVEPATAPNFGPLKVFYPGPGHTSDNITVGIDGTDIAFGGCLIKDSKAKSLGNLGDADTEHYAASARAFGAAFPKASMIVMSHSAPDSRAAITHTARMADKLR
Metallo-beta-lactamase type 2, sequence (C7C422 whole entry): as above

Row | SMILES | IC50 [1] [µM] | inhibition (Bacteria [2]) [%] | MIC (Escherichia coli [3]) [µg/mL] | MIC (Escherichia coli [4]) [µg/mL] | inhibition (Bacteria [5]) [%] | inhibition (Bacteria [6]) [%] | fold change (FC) (Escherichia coli [7]) | IC50 [8] [µM] | IC50 [9] [µM] | inhibition (Bacteria [10]) [%] | MIC (Escherichia coli [11]) [µg/mL] | fold change (FC) (Escherichia coli [12]) | inhibition [13] [%] | inhibition (Bacteria [14]) [%] | IC50 [15] [µM] | fold change (FC) (Escherichia coli [16]) | fold change (FC) (Escherichia coli [17]) | MIC (Escherichia coli [18]) [µg/mL]
1 | CC(C)COC(=O)ONC(=O)CCCc1ccccc1 | 1.03 | < 42 | 32 | 8 | > 90 | < 42 | 2 | 1.87 | 0.85 | > 90 | 64 | 2 | > 90 | > 90 | 1.47 | 2 | 2 | 0.5
2 | CCCCCOC(=O)ONC(=O)C(CC)c1ccccc1 (centres undefined) | 22.3 |  | 32 | 8 |  |  | 2 | 35.3 | 23 |  | 128 |  |  |  | 17.5 | 2 | 2 | 1
3 | CCOC(=O)ONC(=O)CC(c1ccccc1)c1ccccc1 | 10 | < 42 | 64 | 8 |  | < 42 |  | 2.24 | 1.64 | > 90 | 128 |  | > 90 |  | 13.1 |  | 2 | 1
4 | CCOC(=O)ONC(=O)C(CC)c1ccccc1 (centres undefined) | 32.7 |  | 32 | 16 |  |  | 2 | 37.4 | 32.2 |  | 128 |  |  |  | 28 | 2 |  | 1
5 | CCOC(=O)ONC(=O)CCCc1ccccc1 | 2.88 | < 42 | 16 | 4 | > 90 | < 42 | 2 | 0.99 | 2.89 | > 90 | 64 | 2 | > 90 | > 90 | 0.98 | 2 | 2 | 0.5
6 | O=C(OCc1ccccc1)ONC(=O)c1ccccc1 | > 50 | < 42 | 64 | 16 |  | < 42 |  | 2.62 | 2.38 | > 90 | 128 |  | > 90 |  | > 50 |  |  | 1
7 | CCOC(=O)ONC(=O)CCC1CCCCC1 | 3.45 |  | 32 | 16 | > 90 |  | 2 | 3.27 | 3.03 |  | 64 | 16 |  | > 90 | 1.29 | 2 |  | 0.063
8 | CCCCCOC(=O)ONC(=O)CCCc1ccccc1 | 1.03 | < 42 | 16 | 8 | > 90 | < 42 | 2 | 1.87 | 0.85 | > 90 | 64 | 2 | > 90 | > 90 | 1.47 | 2 | 2 | 0.5
9 | O=C(CCc1ccccc1)NOC(=O)OCc1ccccc1 | 3.09 | < 42 | 32 | 8 | > 90 | < 42 | 2 | 2.18 | 1.69 | > 90 | 64 |  | > 90 | > 90 | 2.66 | 2 | 2 | 1
10 | O=C(CCC1CCCCC1)NOC(=O)OCc1ccccc1 | 1.99 |  | 32 | 16 | > 90 |  | 2 | 1.27 | 6.48 |  | 64 | 2 |  | > 90 | 0.6 | 2 |  | 0.5
11 | CCOC(=O)ONC(=O)CCc1ccccc1 | 8.5 |  | 32 | 8 |  |  | 2 | 5.03 | 1.83 |  | 128 | 2 |  |  | 7.7 | 2 | 2 | 0.5
12 | CC(=O)NOC(=O)OCc1ccccc1 | > 50 | < 42 | 32 | 16 |  | < 42 | 2 | 3.21 | 2.42 | > 90 | 64 |  | > 90 |  | > 50 | 2 |  | 1
13 | CC(C)COC(=O)ONC(=O)CCc1ccccc1 | 2.74 |  | 32 | 8 | > 90 |  | 2 | 6.01 | 12.4 |  | 128 |  |  | > 90 | 4.56 | 2 | 2 | 1
14 | O=C(CC(c1ccccc1)c1ccccc1)NOC(=O)OCc1ccccc1 | 5.45 | < 42 | 64 | 8 |  | < 42 |  | 0.84 | 0.65 | > 90 | 64 | 2 | > 90 |  | 1.96 |  | 2 | 0.5
15 | CCCCCOC(=O)ONC(=O)CCc1ccccc1 | 9.08 | < 42 | 16 | 8 |  | < 42 | 2 | 4.72 | 1.73 | > 90 | 64 |  | > 90 |  | 4.51 | 2 | 2 | 1
16 | O=C(OCc1ccccc1)ONC(=O)C1CCCCC1 | 6.71 |  | 64 | 16 |  |  |  | 41.1 | 27.2 |  | 128 |  |  |  | 41.9 |  |  | 1
